Assay results reported in patent publication US10329302B2, “Bicyclic-fused heteroaryl or aryl compounds” (Pfizer Inc., priority 2014, dated 2019).
Like-named read-outs stand apart in the source and are kept apart here.

Assays:
[1] = target: human IRAK4 FL (Full Length) (Homo sapiens (Human), UniProt Q9NWZ3); assay: IRAK4 Enzymatic DELFIA Assay, Protocol A; assay type: biochemical
[2] = system: R848-induced TNFα production by human peripheral blood mononuclear cells (PBMCs); assay: R848 Induced TNFα in Human PBMC Assay; assay type: cell-based; details: Homo sapiens, PBMC, 3 h, read-out: R848-induced TNFa PBMC IC50 (nM)
[3] = human IRAK4 FL, 0.6 mM ATP (KM), read-out: IRAK4 DELFIA Protocol A IC50

Sequence of human IRAK4 FL (Full Length) (Q9NWZ3 whole entry): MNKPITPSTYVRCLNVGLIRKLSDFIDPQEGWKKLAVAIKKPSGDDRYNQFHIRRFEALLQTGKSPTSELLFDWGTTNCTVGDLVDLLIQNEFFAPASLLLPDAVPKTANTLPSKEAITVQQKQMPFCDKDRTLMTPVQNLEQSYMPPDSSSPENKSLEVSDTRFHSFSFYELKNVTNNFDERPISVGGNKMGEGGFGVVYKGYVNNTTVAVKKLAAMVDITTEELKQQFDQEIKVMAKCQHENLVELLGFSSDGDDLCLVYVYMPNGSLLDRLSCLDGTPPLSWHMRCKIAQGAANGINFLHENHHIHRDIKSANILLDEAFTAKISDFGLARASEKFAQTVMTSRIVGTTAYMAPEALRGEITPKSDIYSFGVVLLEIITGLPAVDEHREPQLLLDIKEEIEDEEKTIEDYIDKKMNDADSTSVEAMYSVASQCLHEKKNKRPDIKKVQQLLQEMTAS

Structure (SMILES): CC[C@@H]1[C@H](OC)C(=O)N[C@@H]1COc1nccc2cc(C(N)=O)c(OC)cc12 [Example 342, 1-{[(2S,3S,4S)-3-ethyl-4-methoxy-5-oxopyrrolidin-2-yl]methoxy}-7-methoxyisoquinoline-6-carboxamide]
- IC50 [1, 3]: 1000 nM
- IC50 [2]: 2380 nM

Structure (SMILES): CC(C)Oc1cc2c(OC[C@@H]3C[C@H](C)C(=O)N3)nccc2cc1C(N)=O [Example 125, 1-{[(2S,4S)-4-methyl-5-oxopyrrolidin-2-yl]methoxy}-7-(propan-2-yloxy)isoquinoline-6-carboxamide]
- IC50 [1, 3]: 40 nM
- IC50 [2]: 685 nM

Structure (SMILES): CC(C)Oc1cc2c(OC[C@@H]3C[C@@H](O)C(=O)N3)nccc2cc1C(N)=O [Example 179, 1-{[(2S,4R)-4-hydroxy-5-oxopyrrolidin-2-yl]methoxy}-7-(propan-2-yloxy)isoquinoline-6-carboxamide]
- IC50 [1, 3]: 1.2 nM
- IC50 [2]: 199 nM

Structure (SMILES): CC[C@H]1[C@@H](COc2nccc3cc(C(N)=O)c(OC(C)C)cc23)NC(=O)C1(F)F [Example 201, 1-{[(2S,3S)-3-ethyl-4,4-difluoro-5-oxopyrrolidin-2-yl]methoxy}-7-(propan-2-yloxy)isoquinoline-6-carboxamide]
- IC50 [1, 3]: 0.4 nM
- IC50 [2]: 1 nM

Structure (SMILES): CC(C)Oc1cc2c(OC[C@@H]3C[C@H](O)C(=O)N3)nccc2cc1C(N)=O [Example 150, 1-{[(2S,4S)-4-hydroxy-5-oxopyrrolidin-2-yl]methoxy}-7-(propan-2-yloxy)isoquinoline-6-carboxamide]
- IC50 [1, 3]: 41 nM
- IC50 [2]: 864 nM

Structure (SMILES): CC(C)Oc1cc2c(OC[C@H]3NC(=O)[C@@H](F)[C@H]3C)nccc2cc1C(N)=O [Example 187, 1-{[(2S,3S,4S)-4-fluoro-3-methyl-5-oxopyrrolidin-2-yl]methoxy}-7-(propan-2-yloxy)isoquinoline-6-carboxamide]
- IC50 [1, 3]: 1.1 nM
- IC50 [2]: 40 nM

Structure (SMILES): COc1cc2c(OC[C@@H]3C[C@H](C)C(=O)N3)nccc2cc1C(N)=O [Example 242, 7-methoxy-1-{[(2S,4S)-4-methyl-5-oxopyrrolidin-2-yl]methoxy}isoquinoline-6-carboxamide]
- IC50 [1, 3]: 263 nM
- IC50 [2]: 7250 nM

Structure (SMILES): COc1cc2c(OC[C@@H]3COC(=O)N3)nccc2cc1C(N)=O [Example 230, 7-methoxy-1-{[(4R)-2-oxo-1,3-oxazolidin-4-yl]methoxy}isoquinoline-6-carboxamide]
- IC50 [1, 3]: 7 nM
- IC50 [2]: 199 nM

Structure (SMILES): COc1cc2c(OC[C@H]3NC(=O)[C@@H](F)[C@H]3C)cccc2cc1C(N)=O [Example 218, 5-{[(2S,3S,4S)-4-fluoro-3-methyl-5-oxopyrrolidin-2-yl]methoxy}-3-methoxynaphthalene-2-carboxamide]
- IC50 [1, 3]: 0.3 nM
- IC50 [2]: 11 nM

Structure (SMILES): CC[C@]1(F)C[C@@H](COc2nccc3cc(C(N)=O)c(OC)cc23)NC1=O [Example 257, 1-{[(2S,4S)-4-ethyl-4-fluoro-5-oxopyrrolidin-2-yl]methoxy}-7-methoxyisoquinoline-6-carboxamide]
- IC50 [1, 3]: 6.8 nM
- IC50 [2]: 60 nM

Structure (SMILES): COc1cc2c(OC[C@H]3NC(=O)[C@@H]4[C@@H](C(F)F)[C@@H]43)nccc2cc1C(N)=O [Example 320, 1-{[(1R,2S,5S)-6-(difluoromethyl)-4-oxo-3-azabicyclo[3.1.0]hex-2-yl]methoxy}-7-methoxyisoquinoline-6-carboxamide]
- IC50 [1, 3]: 0.8 nM
- IC50 [2]: 11 nM

Structure (SMILES): CC(C)Oc1cc2c(OC[C@@H]3C[C@H](CC(F)(F)F)C(=O)N3)nccc2cc1C(N)=O [Example 152, 1-{[(2S,4R)-5-oxo-4-(2,2,2-trifluoroethyl)pyrrolidin-2-yl]methoxy}-7-(propan-2-yloxy)isoquinoline-6-carboxamide]
- IC50 [1, 3]: 6.7 nM
- IC50 [2]: 139 nM

Structure (SMILES): COc1c(C(N)=O)cc2ccnc(OC[C@H]3NC(=O)[C@@H]4[C@@H](C)[C@@H]43)c2c1F [Example 365, 8-fluoro-7-methoxy-1-{[(1S,2S,5R)-6-methyl-4-oxo-3-azabicyclo[3.1.0]hex-2-yl]methoxy}isoquinoline-6-carboxamide]
- IC50 [1, 3]: 187 nM
- IC50 [2]: 724 nM

Structure (SMILES): CC(C)Oc1cc2c(OC[C@H]3NC(=O)[C@H](F)[C@H]3C)nccc2cc1C(N)=O [Example 170, 1-{[(2S,3S,4R)-4-fluoro-3-methyl-5-oxopyrrolidin-2-yl]methoxy}-7-(propan-2-yloxy)isoquinoline-6-carboxamide]
- IC50 [1, 3]: 0.8 nM
- IC50 [2]: 41 nM

Structure (SMILES): COc1cc2c(OC[C@@H]3CC(Cc4ccccc4)C(=O)N3)nccc2cc1C(N)=O (stereo partly drawn) [Example 258, 1-{[(2S)-4-benzyl-5-oxopyrrolidin-2-yl]methoxy}-7-methoxyisoquinoline-6-carboxamide]
- IC50 [1, 3]: 141 nM
- IC50 [2]: 2930 nM

Structure (SMILES): COc1cc2c(OC[C@H]3NC(=O)[C@@H]4[C@@H](C)[C@@H]43)ncc(F)c2cc1C(N)=O [Example 364, 4-fluoro-7-methoxy-1-{[(1S,2S,5R)-6-methyl-4-oxo-3-azabicyclo[3.1.0]hex-2-yl]methoxy}isoquinoline-6-carboxamide]
- IC50 [1, 3]: 16 nM
- IC50 [2]: 145 nM

Structure (SMILES): CC[C@H]1[C@@H](COc2nccc3cc(C(N)=O)c(OC)cc23)NC(=O)[C@@H]1O [Example 353, 1-{[(2S,3S,4R)-3-ethyl-4-hydroxy-5-oxopyrrolidin-2-yl]methoxy}-7-methoxyisoquinoline-6-carboxamide]
- IC50 [1, 3]: 0.5 nM
- IC50 [2]: 20 nM

Structure (SMILES): COc1cc2c(OC[C@H]3NC(=O)[C@H](OC)[C@H]3C)nccc2cc1C(N)=O [Example 350, 7-methoxy-1-{[(2S,3S,4R)-4-methoxy-3-methyl-5-oxopyrrolidin-2-yl]methoxy}isoquinoline-6-carboxamide]
- IC50 [1, 3]: 58 nM
- IC50 [2]: 568 nM

Structure (SMILES): CC(C)Oc1cc2c(OC[C@@H]3CCC(=O)N3)nccc2cc1C#N [Example 03, 1-{[(2S)-5-oxopyrrolidin-2-yl]methoxy}-7-(propan-2-yloxy)isoquinoline-6-carbonitrile]
- IC50 [1, 3]: 575 nM
- IC50 [2]: 2740 nM

Structure (SMILES): CC[C@H]1[C@@H](COc2nccc3cc(C(N)=O)c(OC)cc23)NC(=O)[C@@H]1N [Example 357, 1-{[(2S,3R,4R)-4-amino-3-ethyl-5-oxopyrrolidin-2-yl]methoxy}-7-methoxyisoquinoline-6-carboxamide]
- IC50 [1, 3]: 30 nM
- IC50 [2]: 588 nM

Structure (SMILES): CC(C)Oc1cc2c(OC[C@@H]3C[C@@H](CO)C(=O)N3)nccc2cc1C(N)=O [Example 166, 1-{[(2S,4S)-4-(hydroxymethyl)-5-oxopyrrolidin-2-yl]methoxy}-7-(propan-2-yloxy)isoquinoline-6-carboxamide]
- IC50 [1, 3]: 4.3 nM
- IC50 [2]: 389 nM

Structure (SMILES): CC(C)Oc1cc2c(OCC3(CO)CCC(=O)N3)nccc2cc1C(N)=O (stereo not drawn) [Example 147, 1-{[2-(hydroxymethyl)-5-oxopyrrolidin-2-yl]methoxy}-7-(propan-2-yloxy)isoquinoline-6-carboxamide]
- IC50 [1]: 59 nM
- IC50 [2]: 1160 nM

Structure (SMILES): COC[C@@H]1[C@H]2C(=O)N[C@H](COc3nccc4cc(C(N)=O)c(OC)cc34)[C@@H]12 [Example 313, 7-methoxy-1-{[(1S,2S,5S)-6-(methoxymethyl)-4-oxo-3-azabicyclo[3.1.0]hex-2-yl]methoxy}isoquinoline-6-carboxamide]
- IC50 [1, 3]: 210 nM
- IC50 [2]: 1590 nM

Structure (SMILES): CC[C@@H]1C[C@@H](COc2nccc3cc(C(N)=O)c(OC(C)C)cc23)NC1=O [Example 136, 1-{[(2S,4R)-4-ethyl-5-oxopyrrolidin-2-yl]methoxy}-7-(propan-2-yloxy)isoquinoline-6-carboxamide]
- IC50 [1, 3]: 7.8 nM
- IC50 [2]: 184 nM

Structure (SMILES): CC[C@]1(F)C[C@@H](COc2nccc3cc(C(N)=O)c(OC(C)C)cc23)NC1=O [Example 131, 1-{[(2S,4S)-4-ethyl-4-fluoro-5-oxopyrrolidin-2-yl]methoxy}-7-(propan-2-yloxy)isoquinoline-6-carboxamide]
- IC50 [1, 3]: 0.6 nM
- IC50 [2]: 29 nM

Structure (SMILES): CC(C)Oc1cc2c(OC[C@@H]3CCC(=O)N3C)nccc2cc1C(N)=O [Example 180, 1-{[(2S)-1-methyl-5-oxopyrrolidin-2-yl]methoxy}-7-(propan-2-yloxy)isoquinoline-6-carboxamide]
- IC50 [1, 3]: 1790 nM
- IC50 [2]: 2560 nM

Structure (SMILES): COc1cc2c(OC[C@H]3NC(=O)C[C@@H]3CF)nccc2cc1C(N)=O [Example 249, 1-{[(2S,3S)-3-(fluoromethyl)-5-oxopyrrolidin-2-yl]methoxy}-7-methoxyisoquinoline-6-carboxamide]
- IC50 [1, 3]: 20 nM
- IC50 [2]: 764 nM

Structure (SMILES): CC[C@@H]1CC(=O)N[C@@H]1COc1ncc(F)c2cc(C(N)=O)c(OC)cc12 [Example 362, 1-{[(2S,3R)-3-ethyl-5-oxopyrrolidin-2-yl]methoxy}-4-fluoro-7-methoxyisoquinoline-6-carboxamide]
- IC50 [1, 3]: 1.1 nM
- IC50 [2]: 28 nM

Structure (SMILES): CC(C)Oc1cc2c(OC[C@@H]3C[C@](C)(F)C(=O)N3)nccc2cc1C(N)=O [Example 134, 1-{[(2S,4S)-4-fluoro-4-methyl-5-oxopyrrolidin-2-yl]methoxy}-7-(propan-2-yloxy)isoquinoline-6-carboxamide]
- IC50 [1, 3]: 1 nM
- IC50 [2]: 36 nM

Structure (SMILES): CC(C)Oc1cc2c(OC[C@@H]3CC(F)C(=O)N3)nccc2cc1C(N)=O (stereo partly drawn) [Example 112, 1-{[(2S)-4-fluoro-5-oxopyrrolidin-2-yl]methoxy}-7-(propan-2-yloxy)isoquinoline-6-carboxamide]
- IC50 [1, 3]: 1 nM
- IC50 [2]: 50 nM

Structure (SMILES): CC[C@@]1(F)C[C@@H](COc2nccc3cc(C(N)=O)c(OC)cc23)NC1=O [Example 256, 1-{[(2S,4R)-4-ethyl-4-fluoro-5-oxopyrrolidin-2-yl]methoxy}-7-methoxyisoquinoline-6-carboxamide]
- IC50 [1, 3]: 2000 nM
- IC50 [2]: 5620 nM

Structure (SMILES): CCOc1cc2c(OC[C@H]3NC(=O)[C@@H]4C[C@H]34)nccc2cc1C(N)=O [Example 282, 7-ethoxy-1-{[(1S,2S,5R)-4-oxo-3-azabicyclo[3.1.0]hex-2-yl]methoxy}isoquinoline-6-carboxamide]
- IC50 [1, 3]: 11 nM
- IC50 [2]: 191 nM

Structure (SMILES): CC(C)Oc1cc2c(OC[C@@H]3C[C@H](F)C(=O)N3)nccc2cc1C(N)=O [Example 145, 1-{[(2S,4S)-4-fluoro-5-oxopyrrolidin-2-yl]methoxy}-7-(propan-2-yloxy)isoquinoline-6-carboxamide]
- IC50 [1, 3]: 0.4 nM
- IC50 [2]: 41 nM
